ChEMBL document CHEMBL5505963, “Novel berberine derivatives as p300 histone acetyltransferase inhibitors in combination treatment for breast cancer” (Eur J Med Chem, 2024)
Activity calls are given as the source filed them. No cut-off for these calls is given here.

Key:
MCF7 [1] = test: Synergistic antiproliferative activity against human MCF7 cells assessed as combination index at 40 uM incubated for 48 hrs in presence of 1.5 microg/ml doxorubicin by Chou-Talalay method; type: functional
MCF7 [2] = test: Synergistic antiproliferative activity against human MCF7 cells assessed as reduction in cell viability at 5 to 20 uM incubated for 48 hrs in presence of 1 microg/ml doxorubicin by MTT assay; type: functional; conditions: dose 5-20 µM
MCF7 [3] = test: Synergistic antiproliferative activity against human MCF7 cells assessed as combination index at 10 uM incubated for 48 hrs in presence of 0.5 microg/ml doxorubicin by Chou-Talalay method; type: functional
MCF7 [4] = test: Synergistic antiproliferative activity against human MCF7 cells assessed as combination index at 5 uM incubated for 48 hrs in presence of 2 microg/ml doxorubicin by Chou-Talalay method; type: functional
MCF7 [5] = test: Induction of apoptosis in human MCF7 cells assessed as upregulation of cleaved caspase 3 level at 40 uM incubated for 24 hrs in presence of doxorubicin by Western blot analysis; type: functional, cell-based
MCF7 [6] = test: Synergistic antiproliferative activity against human MCF7 cells assessed as combination index at 10 uM incubated for 48 hrs in presence of 1 microg/ml doxorubicin by Chou-Talalay method; type: functional
MCF7 [7] = test: Inhibition of cell invasion in human MCF7 cells measured after 24 hrs by crystal violet staining based microscopic analysis; type: functional
MCF7 [8] = test: Downregulation of H3K27 level in human MCF7 cells incubated for 24 hrs by Western blot analysis; type: functional, cell-based; conditions: dose <= 160.0 µM
MCF7 [9] = test: Downregulation of H3K27 level in human MCF7 cells upto 160 uM incubated for 24 hrs in presence of doxorubicin by Western blot analysis; type: functional, cell-based
MCF7 [10] = test: Antiproliferative activity against human MCF7 cells assessed as inhibition of cell proliferation incubated for 48 hrs by MTT assay; type: functional, cell-based; conditions: MCF7, 48 h
MCF7 [11] = test: Synergistic antiproliferative activity against human MCF7 cells assessed as combination index at 40 uM incubated for 48 hrs in presence of 1 microg/ml doxorubicin by Chou-Talalay method; type: functional
MCF7 [12] = test: Synergistic antiproliferative activity against human MCF7 cells assessed as combination index at 10 uM incubated for 48 hrs in presence of 2 microg/ml doxorubicin by Chou-Talalay method; type: functional
MCF7 [13] = test: Synergistic antiproliferative activity against human MCF7 cells assessed as combination index at 10 uM incubated for 48 hrs in presence of 3 microg/ml doxorubicin by Chou-Talalay method; type: functional
MCF7 [14] = test: Synergistic antiproliferative activity against human MCF7 cells assessed as combination index at 5 uM incubated for 48 hrs in presence of 2.5 microg/ml doxorubicin by Chou-Talalay method; type: functional
MCF7 [15] = test: Synergistic antiproliferative activity against human MCF7 cells assessed as combination index at 20 uM incubated for 48 hrs in presence of 1 microg/ml doxorubicin by Chou-Talalay method; type: functional
MCF7 [16] = test: Synergistic antiproliferative activity against human MCF7 cells assessed as combination index at 20 uM incubated for 48 hrs in presence of 2 microg/ml doxorubicin by Chou-Talalay method; type: functional
MCF7 [17] = test: Synergistic antiproliferative activity against human MCF7 cells assessed as combination index at 5 uM incubated for 48 hrs in presence of 1 microg/ml doxorubicin by Chou-Talalay method; type: functional
MCF7 [18] = test: Synergistic antiproliferative activity against human MCF7 cells assessed as combination index at 5 uM incubated for 48 hrs in presence of 1.5 microg/ml doxorubicin by Chou-Talalay method; type: functional
MCF7 [19] = test: Induction of apoptosis in human MCF7 cells assessed as upregulation of cleaved PARP level at 40 uM incubated for 24 hrs in presence of doxorubicin by Western blot analysis; type: functional, cell-based
MCF7 [20] = test: Downregulation of c-Myc level in human MCF7 cells at 40 uM incubated for 24 hrs in presence of doxorubicin by Western blot analysis; type: functional, cell-based
MCF-10A = test: Antiproliferative activity against human MCF-10A cells assessed as inhibition of cell growth incubated for 48 hrs by MTT assay; type: functional, cell-based
MCF7 [21] = test: Synergistic antiproliferative activity against human MCF7 cells assessed as combination index at 40 uM incubated for 48 hrs in presence of 3 microg/ml doxorubicin by Chou-Talalay method; type: functional
MCF7 [22] = test: Antitumor activity against human MCF7 cells xenografted in BALB/c nude mouse assessed as tumor growth inhibition at 50 mg/kg, ip measured upto 14 days in presence of doxorubicin; type: functional; conditions: MCF7, 336 h, time <= 14 day, read-out: TGI
[23] = Toxicity in BALB/c nude mouse xenografted with human MCF7 cells assessed as loss of body weight at 50 mg/kg, ip measured upto 14 days; type: organism-based; conditions: in vivo, 336 h, time < 14 day
MCF7 [24] = test: Synergistic antiproliferative activity against human MCF7 cells assessed as combination index at 5 uM incubated for 48 hrs in presence of 0.5 microg/ml doxorubicin by Chou-Talalay method; type: functional
MCF7 [25] = test: Inhibition of cell migration in human MCF7 cells assessed as reduction in scratch measured after 24 hrs by microscopic analysis; type: functional
MCF7 [26] = test: Synergistic antiproliferative activity against human MCF7 cells assessed as combination index at 5 uM incubated for 48 hrs in presence of 3 microg/ml doxorubicin by Chou-Talalay method; type: functional
MCF7 [27] = test: Synergistic antiproliferative activity against human MCF7 cells assessed as reduction in cell viability at 5 to 20 uM incubated for 48 hrs in presence of 40 microg/ml doxorubicin by MTT assay; type: functional; conditions: dose 5-20 µM
MCF7 [28] = test: Synergistic antiproliferative activity against human MCF7 cells assessed as combination index at 20 uM incubated for 48 hrs in presence of 2.5 microg/ml doxorubicin by Chou-Talalay method; type: functional
MCF7 [29] = test: Synergistic antiproliferative activity against human MCF7 cells assessed as combination index at 40 uM incubated for 48 hrs in presence of 2 microg/ml doxorubicin by Chou-Talalay method; type: functional
[30] = target: Histone acetyltransferase p300 (Homo sapiens, UniProt Q09472); test: Inhibition of p300 HAT (unknown origin) using 3H-acetyl-CoA as substrate assessed as H3 peptide acetylation preincubated with compound for 15 mins followed by substrate addition and measured after 30 mins by microbeta scintillation counter analysis
MCF7 [31] = test: Synergistic antiproliferative activity against human MCF7 cells assessed as reduction in cell viability at 5 to 20 uM incubated for 48 hrs in presence of 2.5 microg/ml doxorubicin by MTT assay; type: functional; conditions: dose 5-20 µM
MCF7 [32] = test: Inhibition of cell invasion in human MCF7 cells measured after 24 hrs in presence of doxorubicin by crystal violet staining based microscopic analysis; type: functional
MCF7 [33] = test: Synergistic antiproliferative activity against human MCF7 cells assessed as combination index at 20 uM incubated for 48 hrs in presence of 3 microg/ml doxorubicin by Chou-Talalay method; type: functional
PANC-1 = test: Antiproliferative activity against human PANC-1 cells assessed as inhibition of cell growth incubated for 48 hrs by MTT assay; type: functional, cell-based; conditions: PANC-1, 48 h
MCF7 [34] = test: Antiproliferative activity against human MCF7 cells assessed as inhibition of cell growth incubated for 48 hrs by MTT assay; type: functional, cell-based; conditions: MCF7, 48 h
MCF7 [35] = test: Inhibition of cell migration in human MCF7 cells assessed as measured after 24 hrs in presence of doxorubicin by microscopic analysis; type: functional
MCF7 [36] = test: Synergistic antiproliferative activity against human MCF7 cells assessed as combination index at 40 uM incubated for 48 hrs in presence of 2.5 microg/ml doxorubicin by Chou-Talalay method; type: functional
MCF7 [37] = test: Synergistic antiproliferative activity against human MCF7 cells assessed as combination index at 20 uM incubated for 48 hrs in presence of 1.5 microg/ml doxorubicin by Chou-Talalay method; type: functional
MCF7 [38] = test: Synergistic antiproliferative activity against human MCF7 cells assessed as combination index at 10 uM incubated for 48 hrs in presence of 2.5 microg/ml doxorubicin by Chou-Talalay method; type: functional
LNCaP = test: Antiproliferative activity against human LNCaP cells assessed as inhibition of cell growth incubated for 48 hrs by MTT assay; type: functional, cell-based
MCF7 [39] = test: Downregulation of survivin level in human MCF7 cells at 40 uM incubated for 24 hrs in presence of doxorubicin by Western blot analysis; type: functional, cell-based
MCF7 [40] = test: Antitumor activity against human MCF7 cells xenografted in BALB/c nude mouse assessed as tumor growth inhibition at 50 mg/kg, ip measured upto 14 days; type: functional; conditions: MCF7, 336 h, time <= 14 day, read-out: TGI
MCF7 [41] = test: Synergistic antiproliferative activity against human MCF7 cells assessed as combination index at 40 uM incubated for 48 hrs in presence of 0.5 microg/ml doxorubicin by Chou-Talalay method; type: functional
MCF7 [42] = test: Synergistic antiproliferative activity against human MCF7 cells assessed as combination index at 10 uM incubated for 48 hrs in presence of 1.5 microg/ml doxorubicin by Chou-Talalay method; type: functional
MCF7 [43] = test: Synergistic antiproliferative activity against human MCF7 cells assessed as combination index at 20 uM incubated for 48 hrs in presence of 0.5 microg/ml doxorubicin by Chou-Talalay method; type: functional

Sequence of Histone acetyltransferase p300 (Q09472 whole entry): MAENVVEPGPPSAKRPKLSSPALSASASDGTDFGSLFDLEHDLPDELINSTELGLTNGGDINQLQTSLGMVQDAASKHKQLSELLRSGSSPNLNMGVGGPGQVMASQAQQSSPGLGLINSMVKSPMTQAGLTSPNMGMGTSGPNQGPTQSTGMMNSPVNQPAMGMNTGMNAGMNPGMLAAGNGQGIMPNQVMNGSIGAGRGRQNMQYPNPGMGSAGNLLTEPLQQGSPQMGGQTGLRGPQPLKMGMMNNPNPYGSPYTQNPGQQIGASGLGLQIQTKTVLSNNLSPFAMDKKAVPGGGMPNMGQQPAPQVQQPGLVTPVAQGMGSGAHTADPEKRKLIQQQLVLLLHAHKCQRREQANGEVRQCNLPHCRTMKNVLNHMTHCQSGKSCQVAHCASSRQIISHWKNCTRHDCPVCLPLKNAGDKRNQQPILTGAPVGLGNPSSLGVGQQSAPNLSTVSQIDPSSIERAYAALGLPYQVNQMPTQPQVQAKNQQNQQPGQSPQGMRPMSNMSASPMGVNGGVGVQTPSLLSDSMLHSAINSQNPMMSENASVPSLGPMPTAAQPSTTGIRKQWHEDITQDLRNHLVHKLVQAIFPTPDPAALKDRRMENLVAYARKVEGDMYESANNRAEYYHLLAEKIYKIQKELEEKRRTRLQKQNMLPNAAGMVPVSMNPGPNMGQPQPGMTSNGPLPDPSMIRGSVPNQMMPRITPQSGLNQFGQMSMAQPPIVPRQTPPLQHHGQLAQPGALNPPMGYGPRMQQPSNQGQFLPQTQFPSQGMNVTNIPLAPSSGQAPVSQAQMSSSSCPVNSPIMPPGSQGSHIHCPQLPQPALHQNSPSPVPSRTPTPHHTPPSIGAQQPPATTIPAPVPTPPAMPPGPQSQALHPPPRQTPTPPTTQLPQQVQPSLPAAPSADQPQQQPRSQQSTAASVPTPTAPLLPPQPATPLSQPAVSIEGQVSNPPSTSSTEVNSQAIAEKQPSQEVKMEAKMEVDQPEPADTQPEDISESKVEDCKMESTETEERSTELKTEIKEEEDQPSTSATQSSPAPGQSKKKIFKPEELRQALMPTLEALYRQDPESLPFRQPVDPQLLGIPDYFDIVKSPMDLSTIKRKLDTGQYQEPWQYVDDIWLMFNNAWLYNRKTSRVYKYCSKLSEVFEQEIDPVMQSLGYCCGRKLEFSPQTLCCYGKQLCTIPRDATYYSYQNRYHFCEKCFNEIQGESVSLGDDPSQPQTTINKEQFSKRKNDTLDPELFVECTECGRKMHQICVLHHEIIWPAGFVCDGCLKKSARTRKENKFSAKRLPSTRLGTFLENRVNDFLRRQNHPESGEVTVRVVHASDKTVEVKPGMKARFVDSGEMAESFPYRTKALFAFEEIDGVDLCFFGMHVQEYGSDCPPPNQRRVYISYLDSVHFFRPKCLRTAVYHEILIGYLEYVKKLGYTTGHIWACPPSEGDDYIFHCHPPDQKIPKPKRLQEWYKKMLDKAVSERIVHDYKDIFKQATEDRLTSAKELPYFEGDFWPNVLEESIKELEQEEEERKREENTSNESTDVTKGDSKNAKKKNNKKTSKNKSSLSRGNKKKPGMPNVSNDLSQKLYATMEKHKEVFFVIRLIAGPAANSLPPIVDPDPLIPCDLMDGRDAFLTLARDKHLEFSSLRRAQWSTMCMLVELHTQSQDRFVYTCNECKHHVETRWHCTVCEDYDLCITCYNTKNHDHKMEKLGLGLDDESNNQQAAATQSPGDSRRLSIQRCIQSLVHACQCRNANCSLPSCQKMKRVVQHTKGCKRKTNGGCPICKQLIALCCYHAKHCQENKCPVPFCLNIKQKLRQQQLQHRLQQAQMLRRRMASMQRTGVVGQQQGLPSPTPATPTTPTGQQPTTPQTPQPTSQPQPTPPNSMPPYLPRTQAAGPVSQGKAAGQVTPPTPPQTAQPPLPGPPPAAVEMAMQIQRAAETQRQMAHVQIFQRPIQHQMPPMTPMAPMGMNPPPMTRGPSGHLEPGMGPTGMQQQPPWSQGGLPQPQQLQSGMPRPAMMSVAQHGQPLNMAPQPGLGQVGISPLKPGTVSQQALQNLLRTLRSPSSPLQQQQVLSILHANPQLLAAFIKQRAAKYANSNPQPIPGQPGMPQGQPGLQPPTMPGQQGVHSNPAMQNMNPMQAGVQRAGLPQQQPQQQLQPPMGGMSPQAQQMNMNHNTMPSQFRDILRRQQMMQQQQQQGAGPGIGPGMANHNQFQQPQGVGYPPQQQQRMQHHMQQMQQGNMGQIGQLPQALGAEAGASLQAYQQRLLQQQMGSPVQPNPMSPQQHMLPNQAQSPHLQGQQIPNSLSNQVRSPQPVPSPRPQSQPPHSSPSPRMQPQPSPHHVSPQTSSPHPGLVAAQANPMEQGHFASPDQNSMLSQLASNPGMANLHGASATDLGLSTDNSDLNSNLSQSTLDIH

## COc1cc2cc3[n+](cc2cc1OC)CCOc1cc2c(cc1-3)OCO2.[Cl-]
MCF7 [1]
  CI: 0.57
MCF7 [2]
  Activity: 36%
MCF7 [3]
  CI: 88.25
MCF7 [4]
  CI: 113.55
MCF7 [5]
  Activity: Active
MCF7 [6]
  CI: 37.99
MCF7 [7]
  inhibition: Active
MCF7 [8]
  Activity: Dose-Dependent Effect
MCF7 [9]
  Activity: Active
MCF7 [10]
  IC50: 17.3 µM
MCF7 [11]
  CI: 0.59
MCF7 [12]
  CI: 80.19
MCF7 [13]
  CI: 13.65
MCF7 [14]
  CI: 57.34
MCF7 [15]
  CI: 3.44
MCF7 [16]
  CI: 2.65
MCF7 [17]
  CI: 165.98
MCF7 [18]
  CI: 94.38
MCF7 [19]
  Activity: Active
MCF7 [20]
  Activity: Active
MCF-10A
  IC50: > 50 µM
MCF7 [21]
  CI: 0.55
MCF7 [22]
  inhibition in vivo at 50 mg/kg: 83.9%
[23]
  Activity: Non-Toxic
MCF7 [24]
  CI: 517.04
MCF7 [25]
  inhibition (INH): 52.05%
MCF7 [26]
  CI: 39.24
MCF7 [27]
  Activity: 36%
MCF7 [28]
  CI: 2.28
MCF7 [29]
  CI: 0.66
[30]
  IC50: 1510 nM
MCF7 [31]
  Activity: 27%
MCF7 [32]
  inhibition: Active
MCF7 [33]
  CI: 1.86
PANC-1
  IC50: > 50 µM
MCF7 [34]
  IC50: 17.3 µM
MCF7 [35]
  inhibition (INH): 34.22%
MCF7 [36]
  CI: 0.6
MCF7 [37]
  CI: 3.59
MCF7 [38]
  CI: 12.07
LNCaP
  IC50: 43.7 µM
MCF7 [39]
  Activity: Active
MCF7 [40]
  inhibition in vivo at 50 mg/kg: 59.9%
MCF7 [41]
  CI: 1.85
MCF7 [42]
  CI: 38.44
MCF7 [43]
  CI: 3.11
